Test results taken from the supplement of paper PMC8149375.

Experiments:
Details in all cases: treatment: drug + dasatinib (fixed dose, not stated); 5 days
TK-10 [1] = assay: GI50 of drug in presence of dasatinib; higher = less potent
Experimental: (§1)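 Primary HTS combination arm: 8 RCC cell lines treated with 8 doses (up to 10 uM) of each library drug plus a fixed dose of dasatinib (dose not stated) for 5 days; viability read by CellTiter-Glo and normalised to DMSO. GI50 was fitted with XLfit, AUC is the area under the dose-response curve, and minimum viability is the lowest fraction of DMSO viability across doses.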

UO-31 [2] = assay: as above
Experimental: as §1

SN12C [3] = assay: as above
Experimental: as §1

769-P [4] = assay: as above
Experimental: as §1

786-O [5] = assay: as above
Experimental: as §1

CAKI-1 [6] = assay: as above
Experimental: as §1

A498 [7] = assay: as above
Experimental: as §1

TK-10 [8] = assay: minimum viability across doses, drug + dasatinib, relative to DMSO (fraction); higher = less growth inhibition
Experimental: as §1

UO-31 [9] = assay: as above
Experimental: as §1

SN12C [10] = assay: as above
Experimental: as §1

ACHN [11] = assay: as above
Experimental: as §1

769-P [12] = assay: as above
Experimental: as §1

786-O [13] = assay: as above
Experimental: as §1

CAKI-1 [14] = assay: as above
Experimental: as §1

A498 [15] = assay: as above
Experimental: as §1

TK-10 [16] = assay: AUC of dose-response viability curve, drug + dasatinib, normalised to DMSO (arbitrary (AUC of normalised viability)); higher = less growth inhibition
Experimental: as §1

UO-31 [17] = assay: as above
Experimental: as §1

SN12C [18] = assay: as above
Experimental: as §1

ACHN [19] = assay: as above
Experimental: as §1

769-P [20] = assay: as above
Experimental: as §1

786-O [21] = assay: as above
Experimental: as §1

CAKI-1 [22] = assay: as above
Experimental: as §1

A498 [23] = assay: as above
Experimental: as §1

ACHN [24] = assay: GI50 of drug in presence of dasatinib; higher = less potent
Experimental: as §1

GI50 of drug (786-O [5]) | GI50 of drug (ACHN [24]) | SMILES | GI50 of drug (TK-10 [1]) | GI50 of drug (UO-31 [2]) | GI50 of drug (SN12C [3]) | GI50 of drug (769-P [4]) | GI50 of drug (CAKI-1 [6]) | GI50 of drug (A498 [7]) | minimum viability across doses (TK-10 [8]) | minimum viability across doses (UO-31 [9]) | minimum viability across doses (SN12C [10]) | minimum viability across doses (ACHN [11]) | minimum viability across doses (769-P [12]) | minimum viability across doses (786-O [13]) | minimum viability across doses (CAKI-1 [14]) | minimum viability across doses (A498 [15]) | AUC of dose-response viability curve (TK-10 [16]) | AUC of dose-response viability curve (UO-31 [17]) | AUC of dose-response viability curve (SN12C [18]) | AUC of dose-response viability curve (ACHN [19]) | AUC of dose-response viability curve (769-P [20]) | AUC of dose-response viability curve (786-O [21]) | AUC of dose-response viability curve (CAKI-1 [22]) | AUC of dose-response viability curve (A498 [23])
5.68 µM |  | Cn1cc(-c2ccc3nnc(Sc4ccc5ncccc5c4)n3n2)cn1 [SGX-523] + Cc1nc(Nc2ncc(C(=O)Nc3c(C)cccc3Cl)s2)cc(N2CCN(CCO)CC2)n1 [dasatinib] | > 10 µM | > 10 µM | > 10 µM | > 10 µM | 5.5 µM | > 10 µM | 0.646 | 0.836 | 0.679 | 0.452 | 0.548 | 0.477 | 0.41 | 0.743 | 2.41 | 3.15 | 2.46 | 1.87 | 2.38 | 2.25 | 1.92 | 2.84
< 0.003 µM | 0.0373 µM | COc1cc(N2CCC(N3CCN(C)CC3)CC2)ccc1Nc1ncc(Cl)c(Nc2ccccc2S(=O)(=O)C(C)C)n1 [TAE684 (NVP-TAE684)] + Cc1nc(Nc2ncc(C(=O)Nc3c(C)cccc3Cl)s2)cc(N2CCN(CCO)CC2)n1 [dasatinib] | 0.64 µM |  | 0.427 µM |  | 0.224 µM | 2.87 µM | 0.206 | 0.0115 | 0.0423 | 0.0286 | 0.23 | 0.0739 | 0.0167 | 0.348 | 2.06 | 2.04 | 1.82 | 1.15 | 1.83 | 1.55 | 1.51 | 2.64
0.0101 µM |  | O=c1sn(-c2cccc3ccccc23)c(=O)n1Cc1ccccc1 [Tideglusib] + Cc1nc(Nc2ncc(C(=O)Nc3c(C)cccc3Cl)s2)cc(N2CCN(CCO)CC2)n1 [dasatinib] | > 10 µM | > 10 µM | > 10 µM | > 10 µM | > 10 µM | > 10 µM | 0.642 | 1.03 | 0.672 | 0.357 | 0.632 | 0.429 | 0.664 | 0.729 | 2.33 | 4.27 | 2.5 | 1.79 | 2.52 | 1.76 | 2.44 | 3.01
